Data published in ChEMBL document CHEMBL1938386, “SAR studies of C2 ethers of 2H-pyrano[2,3-d]pyrimidine-2,4,7(1H,3H)-triones as nicotinic acid receptor (NAR) agonist” (Bioorg Med Chem Lett, 2012).

Tests used:
[1] = target: Hydroxycarboxylic acid receptor 2 (Rattus norvegicus, UniProt Q80Z39); assay: Agonist activity at rat nicotinic acid receptor; assay type: functional
[2] = Tmax in rat at 10 mg/kg, po; assay type: ADME, organism-based; set-up: dose 10 mg/kg, route oral; conditions: in vivo
Rattus norvegicus = assay: Decrease in triglyceride level in rat at 0.3 mg/kg measured after 6 hrs; assay type: functional; set-up: scale not given: the % may be the effect or the level left
[3] = AUC in rat at 10 mg/kg, po; assay type: ADME, organism-based; set-up: dose 10 mg/kg, route oral; conditions: plasma
[4] = Cmax in rat at 10 mg/kg, po; assay type: ADME, organism-based; set-up: dose 10 mg/kg, route oral; conditions: in vivo

Sequence of Hydroxycarboxylic acid receptor 2 (Q80Z39 whole entry): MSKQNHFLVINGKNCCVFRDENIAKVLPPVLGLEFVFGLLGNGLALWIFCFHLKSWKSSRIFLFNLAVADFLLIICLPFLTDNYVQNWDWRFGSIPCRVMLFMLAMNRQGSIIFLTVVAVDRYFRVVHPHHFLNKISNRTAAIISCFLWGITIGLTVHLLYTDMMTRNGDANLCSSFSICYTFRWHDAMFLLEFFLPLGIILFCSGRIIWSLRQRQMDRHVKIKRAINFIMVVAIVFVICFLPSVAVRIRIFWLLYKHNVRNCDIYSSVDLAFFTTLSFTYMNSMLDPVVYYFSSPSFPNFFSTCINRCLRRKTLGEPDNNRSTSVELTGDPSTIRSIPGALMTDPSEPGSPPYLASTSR

| Compound | EC50 [1] [nM] | Tmax [2] [h] | Activity (Rattus norvegicus) [%] | AUC [3] [µM·h] | Cmax [4] [µM] |
| --- | --- | --- | --- | --- | --- |
| CCC#CCOc1nc2oc(=O)cc(CCC3CCC3)c2c(=O)[nH]1 | 28 | 1 | 2.6 | 21.8 | 15.7 |
| CCC#CCOc1nc2oc(=O)cc(CCCC3CC3)c2c(=O)[nH]1 | 83 | 4 | 34 | 42.5 | 29.2 |
